Article PMC10289985, “Brigatinib pharmacokinetics in patients with chronic hepatic impairment” (Investigational New Drugs, 2023)
Read-outs that look alike come from different tables or passages of the source.

What was measured:
[1] = Plasma protein binding of brigatinib by rapid equilibrium dialysis of participants' plasma samples; assay type: in vitro ADME, human; settings: for fraction unbound: human, plasma, oral, 90 mg, pooled 2, 8, 24 h postdose
Method: Blood samples were collected before brigatinib administration (predose) and at 0.5, 1, 1.5, 2, 2.5, 3, 4, 6, 8, 12, 24, 36, 48, 72, 96, 120, 144, 168, and 192 hours following brigatinib administration to measure brigatinib plasma concentrations. Samples to assess brigatinib plasma protein binding were collected at 2, 8, and 24 hours postdose.
Free fractions of brigatinib in plasma samples were determined as previously reported. Briefly, free brigatinib was separated from protein-bound brigatinib by rapid equilibrium dialysis of plasma samples against warm (37° C) phosphate-buffered saline using the Thermo Scientific Single-Use Rapid Equilibrium Dialysis kit (Thermo Fisher Scientific, Waltham, MA) according to the manufacturer’s specifications. […] After incubation, samples were analyzed for brigatinib concentrations using liquid chromatography with tandem mass spectrometry as previously reported using a dual-range assay with a lower limit of quantitation of 0.100 ng/mL and an upper limit of quantitation of […].
The PK-evaluable population was defined as participants who received the single dose of brigatinib, had no major protocol deviations that affected the PK analyses, and had sufficient data to calculate PK parameters. Individual participant brigatinib plasma concentration-time profiles were analyzed via noncompartmental analysis using Phoenix WinNonLin version 6.4 (Certara, Inc., Princeton, NJ) to calculate plasma PK parameters. Plasma PK parameters calculated for brigatinib included maximum observed plasma concentration (Cmax), time to first maximum observed plasma concentration (Tmax), area under the plasma concentration-time curve from time 0 to the time of the last measurable concentration (AUC0−last), area under the plasma concentration-time curve from time 0 to infinity (AUC0−∞), terminal elimination half-life (t1/2), apparent oral clearance (CL/F), and apparent volume of distribution during the terminal disposition phase (Vz/F). The fraction of unbound brigatinib in plasma was calculated using the following formula: % free (unbound) = [free brigatinib concentration measured in buffer after dialysis] / [total brigatinib concentration measured in plasma] × 100. Unbound brigatinib PK parameters were derived from the following formula (except for the unbound CL/F and unbound Vz/F, which were calculated as total CL/F or total Vz/F divided by the individual participant’s overall mean fraction unbound): unbound PK parameter = (PK parameter based on total concentrations) × (individual participant’s overall mean fraction unbound value).

[2] = Safety and adverse event monitoring after a single 90-mg dose; assay type: in vivo, human
Method: All enrolled participants who received brigatinib were included in the safety population. Adverse event (AE) monitoring occurred throughout the study. Physical examination was conducted at screening with additional symptom-directed physical examinations performed at the investigator’s discretion on study Days −1 and 9. Height, weight, and BMI were recorded at screening. Vital signs were recorded at screening; on Day −1; predose and at 0.5, 1, 2, 3, 4, 6, 8, 12, 24, 36, 48, 72, 96, 120, 144, and 168 hours postdose; and on Day 9. Electrocardiograms were conducted at screening, on Day −1, predose and at 3 and 48 hours postdose, and on Day 9. Clinical laboratory evaluations were performed at screening and on Days −1 and 9 and were reviewed by the investigator for clinical significance.

SMILES: COc1cc(N2CCC(N3CCN(C)CC3)CC2)ccc1Nc1ncc(Cl)c(Nc2ccccc2P(C)(C)=O)n1 [brigatinib]
- concentration dependence of plasma protein binding ([1]; 2, 8 and 24 h postdose within each hepatic function group): not concentration-dependent
- mean fraction unbound, Child-Pugh C relative to healthy participants ([1]; Child-Pugh C vs healthy participants): 2.7 fold
- fraction unbound ([1]; Child-Pugh A, mild hepatic impairment (n=6), read-out: mean fraction unbound (free) in plasma): 0.111
- fraction unbound ([1]; Child-Pugh A, read-out: pooled mean ± SD fraction unbound (converted)): 0.111
- fraction unbound ([1]; Child-Pugh B, moderate hepatic impairment (n=6), read-out: mean fraction unbound (free) in plasma): 0.108
- fraction unbound ([1]; Child-Pugh B, read-out: pooled mean ± SD fraction unbound (converted)): 0.108
- fraction unbound ([1]; Child-Pugh C, severe hepatic impairment (n=6), read-out: mean fraction unbound (free) in plasma): 0.231
- fraction unbound ([1]; Child-Pugh C, read-out: pooled mean ± SD fraction unbound (converted)): 0.231
- fraction unbound ([1]; healthy participants, normal hepatic function (n=9), read-out: mean fraction unbound (free) in plasma): 0.085
- fraction unbound ([1]; healthy participants, read-out: pooled mean ± SD fraction unbound (converted)): 0.085
- number of TEAEs ([2]; Child-Pugh A group): 2 events
- participants with one or more TEAEs ([2]; Child-Pugh A group (n=6)): 2 participants
- number of TEAEs ([2]; Child-Pugh B group): 13 events
- participants with moderate TEAEs possibly related to the study drug ([2]; Child-Pugh B group): Two
- participants with one or more TEAEs ([2]; Child-Pugh B group (n=6)): 4 participants
- number of TEAEs ([2]; Child-Pugh C group): 2 events
- participants with one or more TEAEs ([2]; Child-Pugh C group (n=6)): 2 participants
- participants with one or more treatment-emergent adverse events (TEAEs) ([2]; all 27 study participants, single 90 mg): 13 participants
- participants with constipation ([2]; all participants): 2 participants
- participants with dyspnea ([2]; all participants): 2 participants
- participants with headache ([2]; all participants): 4 participants
- participants with hypertension ([2]; all participants): 2 participants
- participants with nausea ([2]; all participants): 2 participants
- changes in laboratory values or electrocardiogram measurements ([2]; during the study): No clinically significant changes
- discontinuation due to an AE ([2]; during the study): no participants discontinued
- serious AEs ([2]; during the study): no serious AEs
- number of TEAEs ([2]; healthy participant group): 5 events
- participants with one or more TEAEs ([2]; healthy participant group (n=9)): 5 participants
- tolerability ([2]; single 90-mg dose, healthy participants and participants with hepatic impairment): well tolerated
